The values below come from publication PMC12567066, “Sustainable Synthesis of 1,2-Disubstituted Benzimidazoles as Promising α-Glucosidase Inhibitors: In Vitro and In Silico Evaluation” (Pharmaceuticals, 2025).

Entries after “also recorded” stand apart in the source; their conditions may differ. Read-outs that look alike come from different tables or passages of the source.

Series [1] has as its system insulin-degrading enzyme (IDE). The arrangement: method as in PMID 22355395. The settings on record: towards insulin and β-amyloid, cited from earlier work.
In a further series the target is α-glucosidase (Saccharomyces cerevisiae, UniProt P53341). In words: biochemical. The settings on record: for inhibition at 50 µM: 0.25 h; for α-Glucosidase % inib. at 50 μM: 15 min. On the procedure: The α-glucosidase assay was performed as previously described. The enzyme from Saccharomyces cerevisiae (0.125 U/mL) solution was dissolved in 0.1 M sodium phosphate buffer (pH 6.8). Twenty microliters of test samples at various concentrations (0.005–50 μM) were mixed with the enzyme solution in microplate wells and incubated for 15 min at 37 °C. Subsequently, 20 μL of […] p-nitrophenyl α-D-glucopyranoside (pNPG) solution in 0.1 M phosphate buffer was added. After incubation at 37 °C for 15 min, the reaction was terminated by adding 50 μL of 0.2 M sodium carbonate solution. α-Glucosidase activity was determined spectrophotometrically at 405 nm on a 96-well microplate reader Fluostar (BMG LABTECH GmbH, Offenburg, Germany) by measuring the amount of p-nitrophenol released. DMSO control was used whenever required and the final concentration of DMSO was maintained below 8% v/v, which was found not to affect the enzyme activity. The IC50 values were determined by the interpolation of dose–response curves (Figure S2, Supplementary Material).
Sequence of α-glucosidase (P53341 whole entry): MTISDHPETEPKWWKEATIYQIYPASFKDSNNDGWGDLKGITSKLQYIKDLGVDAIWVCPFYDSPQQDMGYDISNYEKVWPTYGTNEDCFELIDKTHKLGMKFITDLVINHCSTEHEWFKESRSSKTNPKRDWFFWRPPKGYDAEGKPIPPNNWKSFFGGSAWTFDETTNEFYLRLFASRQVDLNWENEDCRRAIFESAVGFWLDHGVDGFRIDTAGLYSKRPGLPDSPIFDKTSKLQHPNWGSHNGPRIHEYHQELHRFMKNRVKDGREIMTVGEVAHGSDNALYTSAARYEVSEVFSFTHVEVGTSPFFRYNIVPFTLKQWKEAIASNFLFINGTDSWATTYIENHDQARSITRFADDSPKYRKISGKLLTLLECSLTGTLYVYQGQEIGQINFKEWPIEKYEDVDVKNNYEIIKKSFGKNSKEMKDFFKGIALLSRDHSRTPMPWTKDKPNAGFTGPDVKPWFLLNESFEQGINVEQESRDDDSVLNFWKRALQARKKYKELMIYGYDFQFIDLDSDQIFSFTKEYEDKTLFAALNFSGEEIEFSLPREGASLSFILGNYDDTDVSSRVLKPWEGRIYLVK
(§1) The percentage of inhibition of enzyme activity, for both enzymes, was calculated as (%) by the following equation: A−B/A × 100, where A represents the difference in the absorbance of the control sample between an incubation time of 0 and 1.0 min, and B represents the test sample’s absorbance difference in the same time range.

Another series relates to Caco-2 cells. The series is described as follows: Cell viability MTT assay. It is filed as cell-based, human. To be noted: 1–30 μM, 24 h. As to the method: Cells were treated with different concentrations of the compounds (1–30 μM) for 24 h and examined using the MTT assay.
The cellular cytotoxicity of compounds was investigated using a 3-(4,5-dimethylthiazol-2-yl)-2,5-diphenyl-tetrazolium bromide (MTT) assay as previously reported, with minor modifications. The CaCo-2 were exposed for 24 h to compounds at concentrations ranging from […]. Then, MTT reagent (0.5 mg/mL in DMEM) was added to each well. The plate was incubated for 3 h at 37 °C. The MTT solution was removed from the culture plate, and 100 μL of DMSO solvent was added to solubilize the water-insoluble formazan crystals formed in the cells. The absorbance was determined at 570 nm using a microplate reader (VANTAstar_BMG LABTECH GmbH, Ortenberg, Germany).

Series [2] can be described thus: DPPH radical scavenging assay. To be noted: mean ± SD, three independent experiments. As to the method: Radical scavenging activity of the better derivatives was estimated according to the previously reported method with slight modification using the stable DPPH radical.
A solution of 0.1 mM DPPH• radical was added to various concentrations of compounds. The reaction mixture was incubated in the dark for 15 min and, thereafter, the absorbance was recorded at 517 nm (VANTAstar_BMG LABTECH GmbH, Germany). The decrease in absorbance of DPPH•, after addition of test compounds compared to the control, was used to calculate the antioxidant activity.
(§2) For each assay, the decrease in absorbance was used to calculate the antioxidant activity, which was expressed as the ability of the antioxidants to scavenge 50% of radical (EC50).

Series [3] is described as follows: ABTS radical scavenging assay. To be noted: mean ± SD, three independent experiments. On the procedure:
This method is based on the capacity of an antioxidant to scavenge the free radical ABTS^+ [50].
Samples of each compound (5 μL) were added to 245 μL of ABTS solution. The reduction in the blue-green radical ABTS^+ by hydrogen-donating antioxidants was evaluated by measuring the absorbance at 734 nm (VANTAstar_BMG LABTECH GmbH, Ortenberg, Germany), after one minute of incubation. All the measurements were carried out at least three times.
as §2

In series [4] the target is T1, α-amylase from porcine pancreas (Sus scrofa, UniProt P00690).
T1 construct: 40 μL of α-amylase from porcine pancreas (1 mg/mL) was used; from tissue; host or cells: porcine pancreas
T1 sequence (P00690 16-511): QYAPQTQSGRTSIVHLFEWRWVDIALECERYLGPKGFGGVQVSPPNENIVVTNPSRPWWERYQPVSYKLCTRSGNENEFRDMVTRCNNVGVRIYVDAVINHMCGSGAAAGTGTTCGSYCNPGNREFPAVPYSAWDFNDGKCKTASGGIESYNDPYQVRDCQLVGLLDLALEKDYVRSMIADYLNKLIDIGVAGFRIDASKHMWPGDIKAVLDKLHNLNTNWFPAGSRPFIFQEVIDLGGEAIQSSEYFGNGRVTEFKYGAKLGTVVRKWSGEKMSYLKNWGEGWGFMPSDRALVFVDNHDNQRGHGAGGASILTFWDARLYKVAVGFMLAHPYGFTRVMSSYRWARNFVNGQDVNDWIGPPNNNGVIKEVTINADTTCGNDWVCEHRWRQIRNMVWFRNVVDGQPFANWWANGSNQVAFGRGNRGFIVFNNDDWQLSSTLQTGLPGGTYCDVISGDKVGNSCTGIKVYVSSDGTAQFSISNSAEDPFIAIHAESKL
The series is described as follows: α-amylase inhibition assay (CNPG3 substrate). The format is biochemical. To be noted: 10 min, pH 7, mean ± SD, three independent assays, read-out: α-Amylase % inib. at 50 μM. On the procedure:
The α-amylase assay was conducted as described in previous studies. A reaction mix containing 60 μL of […] sodium phosphate buffer at pH 7.0, 20 μL of 1 M NaCl and 40 μL of α-amylase from porcine pancreas (1 mg/mL) was used. The solution was incubated in the absence or presence of compounds at 37 °C for 10 min. After incubation, 80 μL of a 2.5 μM 2-chloro-4-nitrophenyl α-D-maltotrioside (CNPG3) solution was added as the substrate and 2-chloro-nitrophenol released by the enzymatic hydrolysis was monitored at 405 nm, using a microplate reader (Fluostar BMG LABTECH GmbH, Offenburg, Germany). The results of all the assays described above were expressed as a percentage of the blank control.
as §1

In a further series the test system is hPreP. More on the design: method as in PMID 24602793. The settings on record: cited from earlier work.
In the next series the test system is V. cholerae. The settings on record: cited from earlier work.
The subject of another series is B. cereus. More on the design: method as in PMID 22047695. The settings on record: cited from earlier work.
Another series has as its system S. dysenteriae. The settings on record: cited from earlier work.
The mark [5] stands for this setting: mean ± SD, three independent assays, read-out: α-Glucosidase IC50.
The mark [6] stands for this setting: pH 6.8, 50 μM, mean ± SD, three independent assays, read-out: α-Glucosidase % inib. at 50 μM.
The mark [7] stands for this setting: 50 μM, mean ± SD, three independent assays.

Take `O=[N+]([O-])c1cc(Cn2c(-c3ccc(Cl)c([N+](=O)[O-])c3)nc3ccccc32)ccc1Cl` [3k, 1-(4-Chloro-3-nitrobenzyl)-2-(4-chloro-3-nitrophenyl)-1H-benzo[d]imidazole]: the “Effect on IDE activity” value in [1] is “actively stimulate IDE activity”; in series [1] (listed as IV), “improves the activity of insulin-degrading enzyme (IDE)”.

As to `Cc1cccc2c1nc(-c1ccc(Cl)c([N+](=O)[O-])c1)n2Cc1ccc(Cl)c([N+](=O)[O-])c1` [8k, 1-(4-Chloro-3-nitrobenzyl)-2-(4-chloro-3-nitrophenyl)-4-methyl-1H-benzo[d]imidazole], it took 7.1 µM to reach half-maximal inhibition at α-glucosidase (IC50). The inhibition at 50 µM on α-glucosidase (pH 6.8, read-out: α-Glucosidase % inib. at 50 μM) was 71.2%. Also, the “Cytotoxicity / effect on Caco-2 cell viability” value (“Cytotoxicity / effect” for short) in the series on Caco-2 cells is reported as “none of these compounds affected Caco-2 cell viability; also recorded: no cytotoxic effects”. In addition, the “DPPH EC50” value in series [2] is on record as “no detectable antioxidant activity”. The “ABTS EC50” value in series [3] is “no detectable antioxidant activity”.

Take `Cc1cccc2c1nc(-c1cc(O)ccc1O)n2Cc1cc(O)ccc1O` [8r, 2-(1-(2,5-Dihydroxybenzyl)-4-methyl-1H-benzo[d]imidazol-2-yl)benzene-1,4-diol]: the IC50 at α-glucosidase (setting [5]) is 13.8 ± 2.7 µM. Further, in the series on Caco-2 cells, the “Cytotoxicity / effect” value is reported as “none of these compounds affected Caco-2 cell viability; also recorded: no cytotoxic effects”. The EC50 worked out at 11.4 ± 1.2 µM in [2] and 13 ± 0.2 µM in series [3].

With `Cc1cccc2c1nc(-c1cc(O)c(O)c(O)c1)n2Cc1cc(O)c(O)c(O)c1` [8s, 5-(4-Methyl-1-(3,4,5-trihydroxybenzyl)-1H-benzo[d]imidazol-2-yl)benzene-1,2,3-triol], the inhibition at 50 µM on α-glucosidase (setting [6]) was 97.5%. Also, at α-glucosidase (setting [5]), the 50% inhibitory concentration (IC50) came out at 0.39 ± 0.04 µM. Also, the “Cytotoxicity / effect” value in the series with Caco-2 cells was “none of these compounds affected Caco-2 cell viability; also recorded: no cytotoxic effects”. Also, the values for the EC50 in series [2] and in series [3] were 7.4 ± 0.2 µM and 4.6 ± 0.2 µM, respectively.

Take `O=[N+]([O-])c1cc(Cn2c(-c3ccc(Cl)c([N+](=O)[O-])c3)nc3ccccc32)ccc1Cl` [C00031]: the figures for the inhibition at 50 µM (at α-glucosidase (setting [6]); in [4]) were 9.2 ± 1.6% and 10.2 ± 6.41%, respectively.

As to `Cc1cccc2c1nc(-c1ccc(Cl)c([N+](=O)[O-])c1)n2Cc1ccc(Cl)c([N+](=O)[O-])c1` [C00032], on α-glucosidase (setting [7]), the “α-Glucosidase % inib. at 50 μM” value was determined as 71.2 ± 11.4%. Moreover, the inhibition at 50 µM in series [4] was 14 ± 0.15%.

Regarding `O=[N+]([O-])c1cc(Cn2c(-c3ccc(Cl)c([N+](=O)[O-])c3)nc3cc(Cl)ccc32)ccc1Cl` [C00033], the inhibition at 50 µM worked out at 17.3 ± 0.4% at α-glucosidase (setting [6]) and 15.8 ± 0.5% in series [4].

On to `COc1ccccc1Cn1c(-c2ccccc2OC)nc2c(C)cccc21` [C00034], for which the inhibition at 50 µM on α-glucosidase (setting [6]) stood at 35.3 ± 6.8%; in [4], 3.2 ± 2.3%.

As for `Cc1cccc2c1nc(-c1ccc(O)c([N+](=O)[O-])c1)n2Cc1ccc(O)c([N+](=O)[O-])c1` [C00035], the inhibition at 50 µM turned out to be 3.7 ± 1.4% on α-glucosidase (setting [6]) and 4.3 ± 2.1% in series [4].

`Cc1cccc2c1nc(-c1ccc(Br)c(Br)c1)n2Cc1ccc(Br)c(Br)c1` [C00036]: the inhibition at 50 µM on α-glucosidase (setting [6]) came out at 38.2 ± 7.4%; in series [4], 35.7 ± 3%.

With `Cc1cccc2c1nc(-c1cc(O)ccc1O)n2Cc1cc(O)ccc1O` [C00037], the inhibition at 50 µM on α-glucosidase (setting [6]) worked out at 94.2 ± 2.8%; in series [4], 1.3 ± 0.3%.

With `Cc1cccc2c1nc(-c1cc(O)c(O)c(O)c1)n2Cc1cc(O)c(O)c(O)c1` [C00038], the “α-Glucosidase % inib. at 50 μM” value at α-glucosidase (setting [7]) is 97.5 ± 0.5%.

Take `Cc1cccc2c1nc(-c1ccc(Cl)c([N+](=O)[O-])c1)n2Cc1ccc(Cl)c([N+](=O)[O-])c1` [C00039]: the half-maximal inhibitory concentration (IC50) on α-glucosidase (read-out: α-Glucosidase IC50, mean ± SD, three independent assays) worked out at 7.1 ± 2.1 µM.

Regarding `Cc1cccc2c1nc(-c1cc(O)c(O)c(O)c1)n2Cc1cc(O)c(O)c(O)c1` [C00041], the 50% inhibitory concentration (IC50) on α-glucosidase (setting [5]) was 0.39 ± 0.04 µM.

Take `O=[N+]([O-])c1ccc2c(c1)nc(-c1cc(Br)ccc1O)n2Cc1cc(Br)ccc1O` [III]: in the series on hPreP, the hPreP agonism result is “potent hPreP agonist”.

Turning to `Oc1ccc(Br)cc1Cn1c(-c2cc(Br)ccc2O)nc2ccccc21` [II], the Antibacterial activity entry in the series on V. cholerae, in the series on B. cereus and in the series with S. dysenteriae was “particularly active” throughout.

With `c1ccc(Cn2c(-c3ccccc3)nc3ccccc32)cc1` [I], the Antibacterial activity result with V. cholerae, with B. cereus and with S. dysenteriae was “particularly active” in each case.

Consider `Cc1c(C)c2c(c(C)c1O)CCC(C)(C(=O)O)O2` (stereo not drawn) [Trolox, reference compound], for which the EC50 in series [2] turned out to be 25.3 ± 0.9 µM; in series [3] it was 24.4 ± 0.2 µM.
